The target of the assay is T1, Aldo-keto reductase family 1 member C3 (Homo sapiens, UniProt P42330).
T1 sequence (P42330 whole entry): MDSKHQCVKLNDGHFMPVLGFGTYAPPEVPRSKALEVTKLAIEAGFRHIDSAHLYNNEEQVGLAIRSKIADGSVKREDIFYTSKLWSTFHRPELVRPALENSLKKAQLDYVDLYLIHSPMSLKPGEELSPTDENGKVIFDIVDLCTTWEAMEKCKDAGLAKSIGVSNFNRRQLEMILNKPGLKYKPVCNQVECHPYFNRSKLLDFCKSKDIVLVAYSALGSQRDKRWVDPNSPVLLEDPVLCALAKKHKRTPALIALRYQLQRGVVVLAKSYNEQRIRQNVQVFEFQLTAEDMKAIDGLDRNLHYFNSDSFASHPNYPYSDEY
As to the kind of experiment: Inhibition of AKR1C3 by fluorimetric method.

The structures appear in SMILES notation.

Consider `Cc1ccc(Nc2cccc(C(=O)O)c2)cc1`, for which the IC50 (usually the concentration needed to halve the response being measured) was 700 nM.

For `O=C(O)c1cccc(Nc2ccc(Cl)cc2)c1`, the IC50 turned out to be 130 nM.

In the case of `O=C(O)c1ccccc1Nc1cccc(C(F)(F)F)c1` [FLUFENAMIC ACID], the IC50 is 51 nM.

On to `COc1ccc(Nc2cccc(C(=O)O)c2)cc1`, for which the IC50 amounted to 490 nM.

`O=C(O)c1cccc(Nc2ccc(C(F)(F)F)cc2)c1` displayed an IC50 of 62 nM.

The values are drawn from ChEMBL document CHEMBL1681639, “Discovery of substituted 3-(phenylamino)benzoic acids as potent and selective inhibitors of type 5 17β-hydroxysteroid dehydrogenase (AKR1C3)” (Bioorg Med Chem Lett, 2011).
